Data on seven molecules can be found in ChEMBL document CHEMBL3217632, “Water soluble flavonol prodrugs that protect against ischaemia-reperfusion injury in rat hindlimb and sheep heart” (Medchemcomm, 2011).

Calls of active or inactive are those of the source. The calls are words filed in the database; no cut-off is given here.

For series [1], the species on record is Rattus norvegicus. As to the kind of experiment: Cardiotoxicity in Sprague-Dawley rat hindquarters ischemia/reperfusion model assessed as change in heart rate measured following ischemia/reperfusion by tachometer analysis. Format: toxicity, organism-based. Particulars: in vivo.
Series [2] deals with Ovis aries. The series is described as follows: Cardioprotective activity in iv dosed merino sheep ischemia/reperfusion injury model assessed as circulating LDH level measured 2 hrs post-reperfusion (reference value: 604 +/-58 U/L). Format: functional.
For series [3], the species on record is Rattus norvegicus. The series is described as follows: Cardiotoxicity in Sprague-Dawley rat hindquarters ischemia/reperfusion model assessed as change in mean arterial pressure measured following ischemia/reperfusion. In kind it is toxicity, organism-based, Artery. Particulars: in vivo.
Series [4] relates to Thoracic aorta. The series is described as follows: Vasorelaxant activity in Sprague-Dawley rat thoracic aorta with intact endothelium assessed as inhibition of Ca2+-induced contraction after 20 mins. In kind it is functional, tissue-based. Particulars: for IC50: Rattus norvegicus, Sprague-Dawley, Thoracic aorta, 20 min.
Series [5] deals with Thoracic aorta. The series is described as follows: Inhibition of superoxide anion production in Sprague-Dawley rat thoracic aorta with intact endothelium by lucigenin-based chemiluminescence analysis in presence of NADPH. In kind it is functional.
In series [6] the test system is Ovis aries. As to the kind of experiment: Cardioprotective activity in merino sheep ischemia/reperfusion injury model assessed as infarct size at 5 mg/kg, iv administered as 20 mins infusion at 10 mins prior to reperfusion measured 3 hrs post-reperfusion by triphenyltetrazolium chloride staining (reference value: 80 +/-3%). In kind it is functional.
Series [7] relates to Thoracic aorta. As to the kind of experiment: Vasorelaxant activity in Sprague-Dawley rat thoracic aorta with intact endothelium assessed as Ca2+-induced contraction after 20 mins in absence of butyrylcholinesterase. Format: functional, tissue-based.
Series [8] in a line: Solubility of the compound in aqueous sodium carbonate. In kind it is physicochemical.
For series [9], the system named is Thoracic aorta. As to the kind of experiment: Inhibition of superoxide anion production in Sprague-Dawley rat thoracic aorta with intact endothelium pretreated with butyrylcholinesterase for 1 hr by lucigenin-based chemiluminescence analysis in presence of NADPH. Format: functional.
Series [10] has as its system Thoracic aorta. The series is described as follows: Vasorelaxant activity in Sprague-Dawley rat thoracic aorta with intact endothelium assessed as inhibition of Ca2+-induced contraction pretreated with butyrylcholinesterase for 1 hr. Format: functional, tissue-based. Particulars: for IC50: Rattus norvegicus, Sprague-Dawley, Thoracic aorta.
For series [11], the system named is Thoracic aorta. As to the kind of experiment: Inhibition of superoxide anion production in Sprague-Dawley rat thoracic aorta with intact endothelium by lucigenin-based chemiluminescence analysis in presence of NADPH and absence of butyrylcholinesterase. Format: functional, tissue-based.
Series [12] deals with Ovis aries. As to the kind of experiment: Cardioprotective activity in merino sheep ischemia/reperfusion injury model assessed as circulating LDH level 6.6 mg/kg, iv administered as bolus dose at 10 mins prior to reperfusion measured 3 hrs post-reperfusion by automated analyzer (reference value: 152 +/-50 U/L). Format: functional.
The subject of series [13] is Plasma. The series is described as follows: Prodrug conversion in Sprague-Dawley rat plasma assessed as 3',4'-dihydroxyflavonol formation at 6.6 mg/kg, iv measured within 2 mins of drug administration by LC-MS/MS analysis. Set-up: dose 6.6 mg/kg, route intravenous. Format: ADME, organism-based. Particulars: in vivo.
Series [14] concerns Ovis aries. As to the kind of experiment: Cardioprotective activity in merino sheep ischemia/reperfusion injury model assessed as decrease in infarct size at 6.6 mg/kg, iv administered as bolus dose at 10 mins prior to reperfusion measured 3 hrs post-reperfusion by triphenyltetrazolium chloride staining. In kind it is functional, organism-based. Set-up: dose 6.6 mg/kg.
The test system of series [15] is Rattus norvegicus. As to the kind of experiment: Cardioprotective activity in iv dosed Sprague-Dawley rat hindquarters ischemia/reperfusion model assessed as decrease in circulating LDH level administered as bolus injection 5 mins prior to reperfusion by spectrophotometric analysis. Format: functional, organism-based.
The nature of series [16]: Aqueous solubility of the compound. Format: physicochemical. Particulars: water (aqueous).
The subject of series [17] is Thoracic aorta. The series is described as follows: Inhibition of superoxide anion production in Sprague-Dawley rat thoracic aorta with intact endothelium by lucigenin-based chemiluminescence analysis in presence of NADPH and alkaline phosphatase. In kind it is functional.
Series [18] has as its system Thoracic aorta. As to the kind of experiment: Vasorelaxant activity in Sprague-Dawley rat thoracic aorta with intact endothelium assessed as inhibition of Ca2+-induced contraction after 20 mins in presence of alkaline phosphatase. In kind it is functional, tissue-based. Particulars: for IC50: Rattus norvegicus, Sprague-Dawley, Thoracic aorta, 20 min.
Series [19] concerns Thoracic aorta. As to the kind of experiment: Vasorelaxant activity in Sprague-Dawley rat thoracic aorta with intact endothelium assessed as Ca2+-induced contraction after 20 mins in absence of alkaline phosphatase. Format: functional, tissue-based.

Regarding `O=c1c(O)c(-c2ccc(O)c(O)c2)oc2ccccc12`, the Activity entry in series [1] is “Non-toxic”; in series [2], 405 U/L; in [3] it was “Non-toxic”; in [6], 50%. Also, the Rmax in [4] is 89%; in series [5], 84%. Moreover, the 50% inhibitory concentration (IC50) in [4] was 9.55 µM.
Turning to `O=C(O)CCCCC(=O)Oc1c(-c2ccc(O)cc2)oc2ccccc2c1=O`, in [7], the result was inactive. Moreover, in series [8], the solubility was > 50 mg/mL. Moreover, in series [9], the Rmax is given as 30%. In [10], the Rmax was found to be 70% and the IC50 is 35.5 µM. Moreover, in series [11], the inhibition result is “inactive”.
`O=C(O)CCCCC(=O)Oc1c(-c2ccc(O)c(O)c2)oc2ccccc2c1=O`: in series [7], the outcome was inactive. The Activity entry is “Non-toxic” in series [1], “Non-toxic” in series [3] and 70 U/L in series [12]. Besides, in series [8], the solubility was > 50 mg/mL. In addition, the Rmax came out at 70% in [9] and 76% in [10]. Moreover, in [10], the IC50 is 33.9 µM. The Drug metabolism entry in series [13] was “Active”. Further, the outcome in series [14] and in series [15] was Active. For the same molecule, the inhibition result in series [11] is “inactive”.
Take `O=c1c(O)c(-c2ccccc2)oc2ccccc12` [FLAVONOL]: the Rmax came to 19% in series [4] and 20% in series [5]. In addition, the half-maximal inhibitory concentration (IC50) in [4] is 4.27 µM. The solubility in series [16] is < 1 mg/mL.
As to `O=c1c(OP(=O)([O-])[O-])c(-c2ccc(O)cc2)oc2ccccc12.[Na+].[Na+]`, the Rmax in [17] came to 27%; in [18], 63%. The Activity result in series [1] and in series [3] was “Non-toxic” each time. Also, the solubility in series [16] was > 200 mg/mL. In series [18], the 50% inhibitory concentration (IC50) was 3.98 µM. The result in [14] and in series [15] was Active. In addition, the outcome in series [19] was inactive.
With `O=c1c(OP(=O)([O-])[O-])c(-c2ccccc2)oc2ccccc12.[Na+].[Na+]`, the Rmax came out at 36% in [17] and 40% in series [18]. Moreover, the solubility in [16] was > 200 mg/mL. Besides, the 50% inhibitory concentration (IC50) in [18] is 4.68 µM. The outcome in [19] was inactive.
With `O=c1c(O)c(-c2ccc(O)cc2)oc2ccccc12`, in [4], the Rmax is on record as 70% and the IC50 is 11.7 µM. Besides, the solubility in series [16] was < 1 mg/mL. In series [5], the Rmax amounted to 62%.

As usually defined, the IC50 is the concentration that gives 50% inhibition. By solubility is commonly meant how much of the substance goes into solution per volume. The low end stands for little dissolved substance, the high end for much dissolved substance.
